The values that follow come from patent US20070128217A1 (priority 2003, published 2007).

Experiment [1] has as its system rabbit serum obtained by immunizing a rabbit with the SARS-CoV strain Frankfurt 1. The experiment is classed as binding. The arrangement: Binding of a rabbit serum to linear peptides / Binding of a rabbit serum to looped peptides / Rabbit serum linear peptides / Rabbit serum looped peptides / Binding of a rabbit serum to linear peptides of protein N of SARS-CoV Urbani (Rabbit serum linear peptides) / Binding of a rabbit serum to looped/cyclic peptides of protein N of SARS-CoV Urbani (Rabbit serum looped peptides): unit not given here.

Experiment [2] relates to control sera (pooled serum of ten healthy LUMC hospital workers; commercial negative donor pooled serum from the Dutch bloodbank). The experiment is classed as binding, human. The arrangement: Binding of Control serum LUMC to linear peptides / Binding of Control serum Blood-bank to linear peptides / Binding of Control serum LUMC to looped peptides / Binding of Control Serum Blood-Bank to Looped peptides / Binding of Control serum LUMC to linear peptides of the protein M of SARS-CoV Urbani / Binding of Control serum Blood-bank to linear peptides of the protein M of SARS-CoV Urbani / Binding of Control serum LUMC to looped peptides of the protein M of SARS-CoV Urbani / Binding of Control Serum Blood-Bank to Looped peptides of the protein M of SARS-CoV Urbani: unit not given here.

In experiment [3] the test system is antibodies in sera from SARS patients (sera 1a, 1b, 2, 6, 37, 62, London, SARS-yellow, SARS-green). Type of experiment: binding, human. The arrangement: Binding of serum 6 to linear peptides of protein X1 of SARS-CoV Urbani / Binding of serum 37 to linear peptides of protein X1 of SARS-CoV Urbani / Binding of serum 6 to looped/cyclic peptide (PEPSCAN-ELISA) / Binding of serum 37 to looped/cyclic peptide (PEPSCAN-ELISA) / Binding of serum 37 to looped/cyclic peptides of protein X1 of SARS-CoV Urbani / Binding of serum 6 to linear peptides of protein X2 / Binding of serum 37 to linear peptides of protein X2 / Binding of serum 37 to looped/cyclic peptides of protein X2 of SARS-CoV Urbani / Binding of serum 6 to linear peptides of protein M of SARS-CoV Urbani / Binding of serum 37 to linear peptides of protein M of SARS-CoV Urbani / Binding of serum 6 to looped/cyclic peptides of protein M of SARS-CoV Urbani / Binding of serum 37 to looped/cyclic peptides of protein M of SARS-CoV Urbani / Binding of serum 6 to linear peptides of protein X3 of SARS-CoV Urbani / Binding of serum 37 to linear peptides of protein X3 of SARS-CoV Urbani / Binding of serum 37 to looped/cyclic peptides of protein X3 of SARS-CoV Urbani / Binding of serum 6 to linear peptides of protein X4 of SARS-CoV Urbani / Binding of serum 37 to linear peptides of protein X4 of SARS-CoV Urbani / Binding of serum 37 to looped/cyclic peptides of protein X4 of SARS-CoV Urbani / Binding of serum 6 to linear peptides of protein X5 of SARS-CoV Urbani / Binding of serum 37 to linear peptides of protein X5 of SARS-CoV Urbani / Binding of serum 37 to looped/cyclic peptides of protein X5 of SARS-CoV Urbani / Binding of serum 6 to linear peptides of protein N of SARS-CoV Urbani / Binding of serum 37 to linear peptides of protein N of SARS-CoV Urbani / Binding of serum 6 to linear peptide (PEPSCAN-ELISA) / Binding of serum 1a to looped/cyclic peptides of protein N of SARS-CoV Urbani / Binding of serum 1b to looped/cyclic peptides of protein N of SARS-CoV Urbani / Binding of serum 2 to looped/cyclic peptides of protein N of SARS-CoV Urbani / Binding of serum 6 to looped/cyclic peptides of protein N of SARS-CoV Urbani / Binding of serum 37 to looped/cyclic peptides of protein N of SARS-CoV Urbani / Binding of serum 62 to looped/cyclic peptides of protein N of SARS-CoV Urbani / Binding of serum London to looped/cyclic peptides of protein N of SARS-CoV Urbani / Binding of serum SARS-green to looped/cyclic peptides of protein N of SARS-CoV Urbani: unit not given here.

As to ACFVLAAVYRINWVT, in experiment [1], the “Rabbit serum linear peptides” value worked out at 0.4 and the “Rabbit serum looped peptides” value turned out to be 0.3. For the same sequence, in experiment [2], the “Binding of Control Serum Blood-Bank to Looped peptides of the protein M of SARS-CoV Urbani” value is given as 0.7, the “Binding of Control serum Blood-bank to linear peptides of the protein M of SARS-CoV Urbani” value came to 0.7, the “Binding of Control serum LUMC to linear peptides of the protein M of SARS-CoV Urbani” value is reported as 0.3 and the “Binding of Control serum LUMC to looped peptides of the protein M of SARS-CoV Urbani” value is 0.7. Besides, in experiment [3], the “Binding of serum 1a to linear peptides of protein M of SARS-CoV Urbani” value is 0.7, the “Binding of serum 1a to looped/cyclic peptides of protein M of SARS-CoV Urbani” value worked out at 0.7, the “Binding of serum 1b to linear peptides of protein M of SARS-CoV Urbani” value is recorded as 0.6 and the “Binding of serum 1b to looped/cyclic peptides of protein M of SARS-CoV Urbani” value came to 0.7. In experiment [3], the “Binding of serum 2 to linear peptides of protein M of SARS-CoV Urbani” value stood at 0.5, the “Binding of serum 2 to looped/cyclic peptides of protein M of SARS-CoV Urbani” value is listed as 0.5, the “Binding of serum 6 to linear peptides of protein M of SARS-CoV Urbani” value worked out at 0.3 and the “Binding of serum 6 to looped/cyclic peptides of protein M of SARS-CoV Urbani” value is listed as 1.0. In addition, in experiment [3], the “Binding of serum 37 to linear peptides of protein M of SARS-CoV Urbani” value stood at 0.8, the “Binding of serum 37 to looped/cyclic peptides of protein M of SARS-CoV Urbani” value is given as 0.7, the “Binding of serum 62 to linear peptides of protein M of SARS-CoV Urbani” value is 0.9 and the “Binding of serum 62 to looped/cyclic peptides of protein M of SARS-CoV Urbani” value is on record as 0.6. In experiment [3], the “Binding of serum London to linear peptides of protein M of SARS-CoV Urbani” value worked out at 0.3, the “Binding of serum London to looped/cyclic peptides of protein M of SARS-CoV Urbani” value came to 0.3, the “Binding of serum SARS-green to linear peptides of protein M of SARS-CoV Urbani” value is 0.3 and the “Binding of serum SARS-green to looped/cyclic peptides of protein M of SARS-CoV Urbani” value came to 0.3. In experiment [3], the “Binding of serum SARS-yellow to linear peptides of protein M of SARS-CoV Urbani” value is listed as 0.0 and the “Binding of serum SARS-yellow to looped/cyclic peptides of protein M of SARS-CoV Urbani” value worked out at 0.5.
As to ACLCKHKKVSTNLCT, in experiment [1], the “Binding of a rabbit serum to linear peptides” value was determined as 0.3 and the “Binding of a rabbit serum to looped peptides” value was 0.3. Besides, in experiment [2], the “Binding of Control Serum Blood-Bank to Looped peptides” value was 0.2, the “Binding of Control serum Blood-bank to linear peptides” value is 0.9, the “Binding of Control serum LUMC to linear peptides” value is recorded as 0.8 and the “Binding of Control serum LUMC to looped peptides” value came out at 0.3. Further, in experiment [3], the “Binding of serum 1a to looped/cyclic peptides of protein X2 of SARS-CoV Urbani” value was determined as 0.3, the “Binding of serum 1b to looped/cyclic peptides of protein X2 of SARS-CoV Urbani” value stood at 0.3, the “Binding of serum 2 to looped/cyclic peptides of protein X2 of SARS-CoV Urbani” value was 0.2 and the “Binding of serum 6 to looped/cyclic peptides of protein X2 of SARS-CoV Urbani” value is 0.2. Moreover, in experiment [3], the “Binding of serum 37 to looped/cyclic peptides of protein X2 of SARS-CoV Urbani” value was found to be 0.3, the “Binding of serum 62 to looped/cyclic peptides of protein X2 of SARS-CoV Urbani” value worked out at 0.4, the “Binding of serum London to looped/cyclic peptides of protein X2 of SARS-CoV Urbani” value stood at 0.2 and the “Binding of serum SARS-green to looped/cyclic peptides of protein X2 of SARS-CoV Urbani” value turned out to be 0.3. Moreover, in experiment [3], the “Binding of serum SARS-yellow to looped/cyclic peptides of protein X2 of SARS-CoV Urbani” value came out at 0.3; the “Recognition of the peptide by sera of SARS-CoV infected individuals, and form (linear, looped/cyclic) in which it is recognized” value is on record as “recognized in linear form”.
Consider AFLAVFQSATKIIAL, for which, in experiment [1], the “Binding of a rabbit serum to linear peptides” value was 0.2 and the “Binding of a rabbit serum to looped peptides” value was determined as 0.8. Further, in experiment [2], the “Binding of Control Serum Blood-Bank to Looped peptides” value is on record as 0.7, the “Binding of Control serum Blood-bank to linear peptides” value came to 0.5, the “Binding of Control serum LUMC to linear peptides” value is listed as 0.5 and the “Binding of Control serum LUMC to looped peptides” value worked out at 0.6. Besides, in experiment [3], the “Binding of serum 1a to linear peptides of protein X1 of SARS-CoV Urbani” value came to 0.7, the “Binding of serum 1a to looped/cyclic peptide (PEPSCAN-ELISA)” value is reported as 0.5, the “Binding of serum 1b to linear peptides of protein X1 of SARS-CoV Urbani” value came to 0.4 and the “Binding of serum 1b to looped/cyclic peptide (PEPSCAN-ELISA)” value turned out to be 0.4. In experiment [3], the “Binding of serum 2 to linear peptides of protein X1 of SARS-CoV Urbani” value is reported as 0.5, the “Binding of serum 2 to looped/cyclic peptide (PEPSCAN-ELISA)” value is 0.5, the “Binding of serum 6 to linear peptides of protein X1 of SARS-CoV Urbani” value is 0.4 and the “Binding of serum 6 to looped/cyclic peptide (PEPSCAN-ELISA)” value is 1.3. Besides, in experiment [3], the “Binding of serum 37 to linear peptides of protein X1 of SARS-CoV Urbani” value is reported as 0.6, the “Binding of serum 37 to looped/cyclic peptide (PEPSCAN-ELISA)” value is on record as 0.6, the “Binding of serum 62 to linear peptides of protein X1 of SARS-CoV Urbani” value worked out at 0.5 and the “Binding of serum 62 to looped/cyclic peptide (PEPSCAN-ELISA)” value was 0.6. In addition, in experiment [3], the “Binding of serum London to linear peptides of protein X1 of SARS-CoV Urbani” value is 0.2, the “Binding of serum London to looped/cyclic peptide (PEPSCAN-ELISA)” value stood at 1.6, the “Binding of serum SARS-green to linear peptides of protein X1 of SARS-CoV Urbani” value came to 0.3 and the “Binding of serum SARS-green to looped/cyclic peptide (PEPSCAN-ELISA)” value is 0.3. Also, in experiment [3], the “Binding of serum SARS-yellow to linear peptides of protein X1 of SARS-CoV Urbani” value came to 0.3 and the “Binding of serum SARS-yellow to looped/cyclic peptide (PEPSCAN-ELISA)” value amounted to 0.6.
Take AFQHQNSKKTTKLVV: the “Recognition of the peptide by the rabbit serum” value in experiment [1] is listed as “recognized”. For the same sequence, in experiment [2], the “Binding of Control Serum Blood-Bank to Looped peptides” value came out at 0.7, the “Binding of Control serum Blood-bank to linear peptides” value is 0.6, the “Binding of Control serum LUMC to linear peptides” value came to 0.7 and the “Binding of Control serum LUMC to looped peptides” value is 0.6. Moreover, in experiment [3], the “Binding of serum 1a to linear peptides of protein X2” value is recorded as 0.6, the “Binding of serum 1a to looped/cyclic peptides of protein X2 of SARS-CoV Urbani” value was 0.5, the “Binding of serum 1b to linear peptides of protein X2” value stood at 0.5 and the “Binding of serum 1b to looped/cyclic peptides of protein X2 of SARS-CoV Urbani” value is listed as 0.5. In addition, in experiment [3], the “Binding of serum 2 to linear peptides of protein X2” value is recorded as 0.6, the “Binding of serum 2 to looped/cyclic peptides of protein X2 of SARS-CoV Urbani” value is reported as 0.4, the “Binding of serum 6 to linear peptides of protein X2” value stood at 0.9 and the “Binding of serum 6 to looped/cyclic peptides of protein X2 of SARS-CoV Urbani” value stood at 0.4. For the same sequence, in experiment [3], the “Binding of serum 37 to linear peptides of protein X2” value is 0.8, the “Binding of serum 37 to looped/cyclic peptides of protein X2 of SARS-CoV Urbani” value came to 0.5, the “Binding of serum 62 to linear peptides of protein X2” value was determined as 0.4 and the “Binding of serum 62 to looped/cyclic peptides of protein X2 of SARS-CoV Urbani” value was 0.6. Also, in experiment [3], the “Binding of serum London to linear peptides of protein X2” value is given as 0.4, the “Binding of serum London to looped/cyclic peptides of protein X2 of SARS-CoV Urbani” value is recorded as 0.2, the “Binding of serum SARS-green to linear peptides of protein X2” value was 0.2 and the “Binding of serum SARS-green to looped/cyclic peptides of protein X2 of SARS-CoV Urbani” value is 0.3. In experiment [3], the “Binding of serum SARS-yellow to linear peptides of protein X2” value came out at 0.7 and the “Binding of serum SARS-yellow to looped/cyclic peptides of protein X2 of SARS-CoV Urbani” value is reported as 0.5.
